Test results published in PubChem BioAssay (NCI).
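Tested at 5 concentrations; 48 h exposure; 96-well plates; endpoints linearly interpolated, else capped at highest concentration. The concentration for full growth arrest is given as TGI.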

Assays:
Assay in all cases: growth of human tumour cells (NCI), 48 h
MDA-MB-231 breast = system: MDA-MB-231 breast
IGROV1 ovarian = system: IGROV1 ovarian
SN12C renal = system: SN12C renal
NCI/ADR-RES ovarian = system: NCI/ADR-RES ovarian
NCI-H23 lung = system: NCI-H23 lung
MCF7 breast = system: MCF7 breast
SK-MEL-5 melanoma = system: SK-MEL-5 melanoma
NCI-H226 lung = system: NCI-H226 lung
SR leukemia = system: SR leukemia
MALME-3M melanoma = system: MALME-3M melanoma
TK-10 renal = system: TK-10 renal
U251 CNS = system: U251 CNS
UO-31 renal = system: UO-31 renal
SK-MEL-2 melanoma = system: SK-MEL-2 melanoma
HCT-15 colon = system: HCT-15 colon
DU-145 prostate = system: DU-145 prostate
SW-620 colon = system: SW-620 colon
NCI-H460 lung = system: NCI-H460 lung
786-0 renal = system: 786-0 renal
CAKI-1 renal = system: CAKI-1 renal
NCI-H522 lung = system: NCI-H522 lung
RPMI-8226 leukemia = system: RPMI-8226 leukemia
MDA-MB-435 = system: MDA-MB-435
ACHN renal = system: ACHN renal
SF-295 CNS = system: SF-295 CNS
T-47D breast = system: T-47D breast
RXF 393 renal = system: RXF 393 renal
MOLT-4 leukemia = system: MOLT-4 leukemia
SK-MEL-28 melanoma = system: SK-MEL-28 melanoma
SNB-19 CNS = system: SNB-19 CNS
A549 NSCLC = system: A549 NSCLC
SF-539 CNS = system: SF-539 CNS
UACC-62 melanoma = system: UACC-62 melanoma
BT-549 breast = system: BT-549 breast
HT29 colon = system: HT29 colon
SNB-75 CNS = system: SNB-75 CNS
PC-3 prostate = system: PC-3 prostate
HOP-62 NSCLC = system: HOP-62 NSCLC
K-562 leukemia = system: K-562 leukemia
KM12 colon = system: KM12 colon
SK-OV-3 ovarian = system: SK-OV-3 ovarian
COLO 205 colon = system: COLO 205 colon
OVCAR-5 ovarian = system: OVCAR-5 ovarian
M14 melanoma = system: M14 melanoma
MDA-N = system: MDA-N
OVCAR-8 ovarian = system: OVCAR-8 ovarian
OVCAR-3 ovarian = system: OVCAR-3 ovarian
HCC-2998 colon = system: HCC-2998 colon
EKVX NSCLC = system: EKVX NSCLC
HS 578T breast = system: HS 578T breast
SF-268 CNS = system: SF-268 CNS
HOP-92 NSCLC = system: HOP-92 NSCLC
A498 renal = system: A498 renal
HL-60(TB) leukemia = system: HL-60(TB) leukemia
UACC-257 melanoma = system: UACC-257 melanoma
CCRF-CEM leukemia = system: CCRF-CEM leukemia
OVCAR-4 ovarian = system: OVCAR-4 ovarian
HCT-116 colon = system: HCT-116 colon

With `CC(NC(=O)C(CC(=O)OCc1ccccc1)NC(=O)OCc1ccccc1)c1ccccc1` (centres undefined) the TGI (MDA-MB-231 breast) was greater than 100 µM, the TGI (IGROV1 ovarian) was greater than 100 µM and the TGI (SN12C renal) was greater than 100 µM. For the same compound, the TGI (NCI/ADR-RES ovarian) was greater than 100 µM, the TGI (NCI-H23 lung) was greater than 100 µM and the TGI (MCF7 breast) was greater than 100 µM. It also gave a TGI (SK-MEL-5 melanoma) greater than 100 µM, a TGI (NCI-H226 lung) greater than 100 µM and a TGI (SR leukemia) greater than 100 µM. The TGI (MALME-3M melanoma) was greater than 100 µM, the TGI (TK-10 renal) was greater than 100 µM and the TGI (U251 CNS) was greater than 100 µM. For the same compound, the TGI (UO-31 renal) was greater than 100 µM, the TGI (SK-MEL-2 melanoma) was greater than 100 µM and the TGI (HCT-15 colon) was greater than 100 µM. The TGI (DU-145 prostate) was greater than 100 µM, the TGI (SW-620 colon) was greater than 100 µM and the TGI (NCI-H460 lung) was greater than 100 µM. It also gave a TGI (786-0 renal) greater than 100 µM, a TGI (CAKI-1 renal) greater than 100 µM and a TGI (NCI-H522 lung) greater than 100 µM. For the same compound, the TGI (RPMI-8226 leukemia) was greater than 100 µM, the TGI (MDA-MB-435) was greater than 100 µM and the TGI (ACHN renal) was greater than 100 µM. It also gave a TGI (SF-295 CNS) greater than 100 µM, a TGI (T-47D breast) greater than 100 µM and a TGI (RXF 393 renal) greater than 100 µM. It also gave a TGI (MOLT-4 leukemia) greater than 100 µM, a TGI (SK-MEL-28 melanoma) greater than 100 µM and a TGI (SNB-19 CNS) greater than 100 µM. For the same compound, the TGI (A549 NSCLC) was greater than 100 µM, the TGI (SF-539 CNS) was greater than 100 µM and the TGI (UACC-62 melanoma) was greater than 100 µM. It also gave a TGI (BT-549 breast) greater than 100 µM, a TGI (HT29 colon) greater than 100 µM and a TGI (SNB-75 CNS) greater than 100 µM. For the same compound, the TGI (PC-3 prostate) was greater than 100 µM, the TGI (HOP-62 NSCLC) was greater than 100 µM and the TGI (K-562 leukemia) was greater than 100 µM. The TGI (KM12 colon) was greater than 100 µM, the TGI (SK-OV-3 ovarian) was greater than 100 µM and the TGI (COLO 205 colon) was greater than 100 µM. For the same compound, the TGI (OVCAR-5 ovarian) was greater than 100 µM, the TGI (M14 melanoma) was greater than 100 µM and the TGI (MDA-N) was greater than 100 µM. For the same compound, the TGI (OVCAR-8 ovarian) was greater than 100 µM, the TGI (OVCAR-3 ovarian) was greater than 100 µM and the TGI (HCC-2998 colon) was greater than 100 µM. The TGI (EKVX NSCLC) was greater than 100 µM, the TGI (HS 578T breast) was greater than 100 µM and the TGI (SF-268 CNS) was greater than 100 µM.

`COC1(OC)C[C@H](C)[C@@]23O[C@]24C2=CC(=O)C=CC2=N[C@H]3C#C/C=C\C#C[C@]14O` was tested, and the TGI (MDA-MB-231 breast) was 2.06 µM, the TGI (IGROV1 ovarian) was 2.37 µM and the TGI (HOP-92 NSCLC) was 1.8 µM. It also gave a TGI (NCI/ADR-RES ovarian) of 36.1 µM, a TGI (NCI-H23 lung) of 2.05 µM and a TGI (MCF7 breast) of 1.4 µM. The TGI (SK-MEL-5 melanoma) was 1.56 µM, the TGI (NCI-H226 lung) was 2.6 µM and the TGI (SR leukemia) was 0.4 µM. The TGI (A498 renal) was 2.11 µM, the TGI (MALME-3M melanoma) was 2.1 µM and the TGI (TK-10 renal) was 2.1 µM. For the same compound, the TGI (U251 CNS) was 1.82 µM, the TGI (UO-31 renal) was 1.76 µM and the TGI (SK-MEL-2 melanoma) was 3.58 µM. It also gave a TGI (DU-145 prostate) of 2.24 µM, a TGI (SW-620 colon) of 3.42 µM and a TGI (NCI-H460 lung) of 1.42 µM. The TGI (HL-60(TB) leukemia) was 0.318 µM, the TGI (786-0 renal) was 0.574 µM and the TGI (UACC-257 melanoma) was 5.16 µM. The TGI (CAKI-1 renal) was 1.4 µM, the TGI (CCRF-CEM leukemia) was 0.811 µM and the TGI (RPMI-8226 leukemia) was 0.56 µM. The TGI (MDA-MB-435) was 1.7 µM, the TGI (ACHN renal) was 0.965 µM and the TGI (OVCAR-4 ovarian) was 1.74 µM. For the same compound, the TGI (SF-295 CNS) was 6.65 µM, the TGI (T-47D breast) was 2.56 µM and the TGI (RXF 393 renal) was 2.49 µM. The TGI (MOLT-4 leukemia) was 0.106 µM, the TGI (SK-MEL-28 melanoma) was 2.51 µM and the TGI (SNB-19 CNS) was 3.02 µM. The TGI (A549 NSCLC) was 1.78 µM, the TGI (SF-539 CNS) was 1.93 µM and the TGI (UACC-62 melanoma) was 2.93 µM. The TGI (BT-549 breast) was 2.2 µM, the TGI (HT29 colon) was 1.25 µM and the TGI (SNB-75 CNS) was 1.58 µM. For the same compound, the TGI (PC-3 prostate) was 2.09 µM, the TGI (HOP-62 NSCLC) was 2.25 µM and the TGI (KM12 colon) was 1.88 µM. The TGI (SK-OV-3 ovarian) was 2.89 µM, the TGI (COLO 205 colon) was 2.14 µM and the TGI (OVCAR-5 ovarian) was 1.8 µM. It also gave a TGI (M14 melanoma) of 1.82 µM, a TGI (MDA-N) of 2.28 µM and a TGI (HCT-116 colon) of 1.35 µM. It also gave a TGI (OVCAR-3 ovarian) of 1.93 µM, a TGI (HCC-2998 colon) of 2.13 µM and a TGI (EKVX NSCLC) of 2.21 µM. It also gave a TGI (HS 578T breast) of 5.09 µM and a TGI (SF-268 CNS) of 12.2 µM.

For `S=C(Nc1c2c(nc3ccccc13)CCCC2)Nc1c2c(nc3ccccc13)CCCC2`, the TGI (MDA-MB-231 breast) was greater than 100 µM, the TGI (IGROV1 ovarian) was greater than 100 µM and the TGI (SN12C renal) was greater than 100 µM. For the same compound, the TGI (NCI/ADR-RES ovarian) was greater than 100 µM, the TGI (NCI-H23 lung) was greater than 100 µM and the TGI (MCF7 breast) was greater than 100 µM. The TGI (SK-MEL-5 melanoma) was greater than 100 µM, the TGI (NCI-H226 lung) was greater than 100 µM and the TGI (SR leukemia) was greater than 100 µM. It also gave a TGI (A498 renal) greater than 100 µM, a TGI (MALME-3M melanoma) greater than 100 µM and a TGI (TK-10 renal) greater than 100 µM. For the same compound, the TGI (U251 CNS) was greater than 100 µM, the TGI (UO-31 renal) was greater than 100 µM and the TGI (SK-MEL-2 melanoma) was greater than 100 µM. It also gave a TGI (HCT-15 colon) greater than 100 µM, a TGI (DU-145 prostate) greater than 100 µM and a TGI (SW-620 colon) greater than 100 µM. It also gave a TGI (NCI-H460 lung) greater than 100 µM, a TGI (786-0 renal) greater than 100 µM and a TGI (UACC-257 melanoma) greater than 100 µM. For the same compound, the TGI (CAKI-1 renal) was greater than 100 µM, the TGI (CCRF-CEM leukemia) was greater than 100 µM and the TGI (NCI-H522 lung) was greater than 100 µM. For the same compound, the TGI (RPMI-8226 leukemia) was greater than 100 µM, the TGI (MDA-MB-435) was greater than 100 µM and the TGI (ACHN renal) was greater than 100 µM. The TGI (OVCAR-4 ovarian) was greater than 100 µM, the TGI (SF-295 CNS) was greater than 100 µM and the TGI (T-47D breast) was greater than 100 µM. The TGI (RXF 393 renal) was greater than 100 µM, the TGI (MOLT-4 leukemia) was greater than 100 µM and the TGI (SK-MEL-28 melanoma) was greater than 100 µM. For the same compound, the TGI (SNB-19 CNS) was greater than 100 µM, the TGI (A549 NSCLC) was greater than 100 µM and the TGI (UACC-62 melanoma) was greater than 100 µM. For the same compound, the TGI (BT-549 breast) was greater than 100 µM, the TGI (HT29 colon) was greater than 100 µM and the TGI (SNB-75 CNS) was greater than 100 µM. The TGI (PC-3 prostate) was greater than 100 µM, the TGI (HOP-62 NSCLC) was greater than 100 µM and the TGI (K-562 leukemia) was greater than 100 µM. The TGI (KM12 colon) was greater than 100 µM, the TGI (SK-OV-3 ovarian) was greater than 100 µM and the TGI (COLO 205 colon) was greater than 100 µM. It also gave a TGI (OVCAR-5 ovarian) greater than 100 µM, a TGI (M14 melanoma) greater than 100 µM and a TGI (MDA-N) greater than 100 µM. The TGI (HCT-116 colon) was greater than 100 µM, the TGI (OVCAR-8 ovarian) was greater than 100 µM and the TGI (OVCAR-3 ovarian) was greater than 100 µM. It also gave a TGI (HCC-2998 colon) greater than 100 µM, a TGI (EKVX NSCLC) greater than 100 µM and a TGI (HS 578T breast) greater than 100 µM. For the same compound, the TGI (SF-268 CNS) was greater than 100 µM.
